# Results: patent publication US5703072A, “Bicyclic nonane and decane compounds having dopamine receptor affinity” (Allelix Biopharmaceuticals, priority 1996, dated 1997)
# Columns and labels:
# [1] = biological target: T1, human D2 receptor (short isoform) (Homo sapiens, UniProt P14416); experiment: D2 receptor binding (displacement of 3H-spiperone) relative to D4: D2/D4 selectivity; conditions: D2/D4 ratio
# T1 construct: 3H-spiperone displacement
# Experimental: (§1) The potency of the test compound to reduce ^3 H-spiperone binding directly correlated to its binding affinity for the receptor.
# GH4 C1 (rat pituitary) cells stably transfected with the human D2 receptor (short isoform) were grown in CO2 independent media in roller bottles (1500 cm^2) for 10 days. 100 μM ZnSO4 was added to the cells (the D2 promoter being zinc inducible). After 16 hours, fresh media was added to allow the cells to recover for 24 hours. The cells were harvested using versine and then centrifuged in a Sorval centrifuge for 10 minutes, at 5000 rpm (GS3 rotor). Pellets were quickly frozen in liquid nitrogen and stored at -80° C. until used in the binding assays. When used in the assay, cells were thawed on ice for 20 minutes. […] The receptor protein concentration was determined using the Pierce BCA assay.
# (§2) The tubes were vortexed and incubated at room temperature for 90 minutes. The binding reaction was stopped by filtering using a Brandell Cell Harvester. The samples were filtered under vacuum over glass fibre filters (Whatman GF/B) presoaked for 2 hours in 0.3% polyethylenimine (PEI) in 50 mM Tris buffer (pH 7.4). The filters were then washed 3 times with 5 ml ice cold 50 mM Tris buffer (pH 7.4). Individual filter disks were put in scintillation vials (Biovials, Bechman). Ready Protein Plus liquid scintillant (5 ml, Beckman) was added and the vials counted by liquid scintillation spectrophotometry (Beckman LSC 6500) after equilibrating for three hours at room temperature to determine total binding (BT).
# This assay employed the same procedures as the non-specific binding assay for D4 with the exception that 2 μM (final conc.) of (-) sulpiride (Research Chemicals Inc.) was used in place of dopamine.
# (§3) The incubation was started by the addition to 12×75 mm polypropylene tubes 500 μl (50 μg protein) membrane homogenate to a solution of 400 μl incubation buffer, 100 μl ([…].) ^3 H-spiperone (90 Ci/mmol, Amersham, diluted in borosilicate glass vial to) and 500 μl of test compound that was prepared from 1 mM stock dissolved in DMSO and stored at -20° C. in polypropylene cryogenic storage vials until dilution in incubation buffer in borosilicate glass vials. The tubes were vortexed and incubated at room temperature for 90 minutes at which time the binding reaction was stopped by filtering. The filters were washed and counted using the same procedure as in the total binding assay described above to give the displacement binding value (BD).
# (§4) IC50 was determined from an inhibition response curve, logit-log plot of %B/B0 vs concentration of test compound.
# (§5) Ki was calculated by the Cheng and Prustoff transformation: Ki=IC50 /(1+[L]/KD) where [L] is the concentration of ^3 H-spiperone used in the assay and KD is the dissociation constant of ^3 H-spiperone determined independently under the same binding conditions.
# [2] = biological target: T2, human D4 receptor (D4.2 sub-type) (Homo sapiens, UniProt P21917, DEL265-296); experiment: D4 receptor binding: displacement of 3H-spiperone; conditions: D4 affinity; 3H-spiperone displacement
# T2 construct: expressed in transfected cells; host or cells: HEK 298 (human embryonic kidney) cells (so in the source); homogenate of stably transfected cells
# T2 sequence (P21917 with tags, fused parts or gaps DEL265-296): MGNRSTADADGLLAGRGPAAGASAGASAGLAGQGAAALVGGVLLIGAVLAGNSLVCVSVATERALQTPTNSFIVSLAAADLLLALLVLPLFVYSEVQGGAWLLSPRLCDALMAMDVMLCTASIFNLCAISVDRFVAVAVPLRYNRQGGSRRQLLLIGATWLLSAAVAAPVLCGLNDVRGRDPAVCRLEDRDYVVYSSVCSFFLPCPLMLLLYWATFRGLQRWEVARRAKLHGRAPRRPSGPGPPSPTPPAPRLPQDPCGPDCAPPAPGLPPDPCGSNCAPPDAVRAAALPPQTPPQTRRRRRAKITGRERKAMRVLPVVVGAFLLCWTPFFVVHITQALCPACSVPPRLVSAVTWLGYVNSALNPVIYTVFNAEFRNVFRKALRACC
# Experimental: as §1
# The cells were then centrifuged in a Sorval centrifuge for 10 min, 5000 rpm (GS3 rotor) and the pellets quickly frozen in liquid nitrogen and stored at -80° C. until used in binding assay. When used in the assay, cells were thawed on ice for 20 min and then 1 mL of incubation buffer (50 mM Tris, 1 mM EDTA, 4 mM MgCl2, 5 mM KCl, 1.5 mM CaCl2, 120 mM NaCl, pH7.4) was added. […] Concentration of receptor protein was determined using the Pierce BCA assay.
# as §2
# The tubes were vortexed and incubated at room temperature for 90 minutes at which time the binding reaction was stopped by filtering. The filters were washed and counted using the same procedure as in the total binding assay described above to give the non-specific binding value (NSB).
# as §3, §4, §5
# [3] = biological target: T3, human D4 receptors (Homo sapiens, UniProt P21917); experiment: Antagonist assay: reversal of dopamine inhibition of forskolin-stimulated adenyl cyclase (cAMP) in CHO Pro 5 cells; assay type: cell-based; conditions: dopamine and forskolin both 10 μM; for inhibition at 1 µM: test compound 1 μM, read-out: % REVERSAL OF DOPAMINE EFFECT, 1 μM; for inhibition at 10 µM: test compound 10 μM, read-out: % REVERSAL OF DOPAMINE EFFECT, 10 μM
# T3 construct: expressed in transfected cells; host or cells: CHO Pro 5 cells, stably expressing
# T3 sequence (P21917 1-419): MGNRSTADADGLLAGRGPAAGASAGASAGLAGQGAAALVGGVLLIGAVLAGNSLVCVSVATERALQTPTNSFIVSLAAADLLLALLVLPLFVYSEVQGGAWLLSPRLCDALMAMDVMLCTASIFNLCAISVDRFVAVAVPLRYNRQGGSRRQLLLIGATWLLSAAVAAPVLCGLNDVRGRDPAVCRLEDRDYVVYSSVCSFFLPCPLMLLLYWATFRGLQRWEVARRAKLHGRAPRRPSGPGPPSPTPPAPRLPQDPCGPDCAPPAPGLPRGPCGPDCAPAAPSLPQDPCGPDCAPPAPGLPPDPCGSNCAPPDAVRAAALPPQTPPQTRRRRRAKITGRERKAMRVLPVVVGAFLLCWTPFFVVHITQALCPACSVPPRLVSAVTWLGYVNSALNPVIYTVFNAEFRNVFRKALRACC
# Experimental: The D4 receptor responds to dopamine and other agonists by reducing adenyl cyclase mediated production of cyclic AMP. Particular test compounds were assayed for their ability to reverse dopamine inhibition of adenyl cyclase by the following procedure. Forskolin was used to elevate the basal adenyl cyclase activity.
# CHO Pro 5 cells stably expressing human D4 receptors were plated in 6 well plates in DMEM (Dulbecco's Modified Eagle Medium)/F12(Nutrient Mixture F12 (Ham)) media with 10% FCS (fetal calf serum) and G418 (Geneticen Disulfate), and incubated at 37° C. in a CO2 incubator. The cells were allowed to grow to about 70% confluence before use in the assay.
# The culture media of each well was removed by aspiration, and the wells were washed once with serum free media (SFM) (DMEM/F12) media. Then 2 mL of fresh SFM+IBMX media (SFM with 0.5 mM IBMX (3-isobutyl-1-methylxanthine0.1% ascorbic acid and 10 μM pargyline) was added to each well and then incubated at 37° C. for 10 minutes in CO2 incubator. Following incubation, SFM+IBMX media was aspirated and fresh SFM+IBMX media was added to wells separately with one of a) forskolin (10 μM final conc.); b) dopamine and forskolin (both 10 μM final conc.); […]), and dopamine and forskolin (both 10 μM final conc.). Basal adenyl cyclase activity was determined from wells with only SFM+IBMX media added.
# The cells were then incubated at 37° C. for 30 minutes in a CO2 incubator. Following incubation the media was aspirated from each well and then washed once with 2 mL of PBS (phosphate buffered saline). […] The cells from each well were then scraped and transferred into individual Eppendorf tubes. The tubes were centrifuged for 5 min at 4° C., and the supernatants were transferred to new Eppendorf tubes. The pellets were discarded and the supernatants dried using a SpeedVac. The extracts were then reconstituted in 600 μL of 0.1M sodium acetate buffer, pH 6.1, and stored at 4° C. until assayed for cAMP concentration. cAMP content measured in fmoles/well for each extract was determined by EIA (enzyme-immunoassay) using Amersham Biotrak cAMP EIA kit (Amersham RPN 225).
# Total inhibition (I0) of forskolin-stimulated adenyl cyclase activity by dopamine was determined as the difference in concentration of cAMP in the forskolin-treated cells (Cf) and dopamine-forskolin treated cells (Cd).
# Net inhibition (I) of forskolin-stimulated adenyl cyclase activity by dopamine in the presence of an antagonist was determined as the difference in concentration of cAMP in the forskolin-treated cells (Cf) and test compound, dopamine and forskolin treated cells (C).
# [4] = tested on: D4 receptor relative to the D2 receptor; conditions: currently marketed products; cited from earlier work
# [5] = biological target: D4 receptor; conditions: D4 affinity of currently marketed products; cited from earlier work
# T1 sequence (P14416 with tags, fused parts or gaps DEL242-270): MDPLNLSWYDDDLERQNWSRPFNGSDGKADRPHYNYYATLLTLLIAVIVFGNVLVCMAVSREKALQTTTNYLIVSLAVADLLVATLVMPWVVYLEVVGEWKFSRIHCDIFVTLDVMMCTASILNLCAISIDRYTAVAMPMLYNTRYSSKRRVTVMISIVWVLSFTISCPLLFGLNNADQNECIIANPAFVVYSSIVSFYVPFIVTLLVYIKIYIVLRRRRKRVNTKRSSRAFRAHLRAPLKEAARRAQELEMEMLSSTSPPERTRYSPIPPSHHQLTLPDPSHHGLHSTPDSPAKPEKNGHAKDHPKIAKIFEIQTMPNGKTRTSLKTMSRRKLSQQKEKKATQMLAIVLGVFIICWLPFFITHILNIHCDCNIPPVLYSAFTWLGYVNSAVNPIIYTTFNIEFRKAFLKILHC
D2/D4 [1],Ki [2],inhibition at 1 µM [3],inhibition at 10 µM [3],Structure (SMILES),preference for binding the D4 receptor relative to the D2 receptor [4],Ki [5]
4.1,402 nM,–,–,"Clc1ccc2c(c1)N=C(N1CCN3CCCC[C@@H]3C1)c1ccccc1O2 [8-chloro-11-[(R)-1,4-diazabicyclo[4.4.0]decan-4-yl]-dibenzo[b,f]-1,4-oxazepine]",–,–
40,1 nM,52%,93%,"Clc1ccc2c(c1)N=C(N1CCN3CCCC[C@H]3C1)c1ccccc1O2 [8-chloro-11-[(S)-1,4-diazabicyclo[4.4.0]decan-4-yl]-dibenzo[b,f]-1,4-oxazepine]",–,–
32.2,18 nM,–,–,"Clc1ccc2c(c1)N=C(N1CCN3CCC[C@@H]3C1)c1ccccc1O2 [8-chloro-11-[(R)-1,4-diazabicyclo[4.3.0]non-4-yl]-dibenzo[b,f]-1,4-oxazepine]",–,–
18.2,28 nM,–,–,"O[C@H]1C[C@H]2CN(C3=Nc4cc(Cl)ccc4Oc4ccccc43)CCN2C1 [8-chloro-11-[(6S,8S)-8-hydroxy-1,4-diazabicyclo[4.3.0]non-4-yl]-dibenzo[b,f]-1,4-oxazepine]",–,–
–,–,–,–,CN1CCN(C2=Nc3cc(Cl)ccc3Oc3ccccc32)CC1 [isoloxapine],about 10 fold,~20 nM
104.5,1.2 nM,23%,48%,"Clc1ccc2c(c1)N=C(N1CCN3CCC[C@H]3C1)c1ccccc1O2 [8-chloro-11-[(S)-1,4-diazabicyclo[4.3.0]non-4-yl]-dibenzo[b,f]-1,4-oxazepine]",–,–
25.6,24 nM,–,–,"Clc1ccc2c(c1)N=C(N1CCN3C[C@@H](OCc4ccccc4)C[C@H]3C1)c1ccccc1O2 [8-chloro-11-[(6S,8S)-8-benzyloxy-1,4-diazabicyclo[4.3.0]non-4-yl]-dibenzo[b,f]-1,4-oxazepine]",–,–
6.8,15.7 nM,–,–,"Clc1ccc2c(c1)N=C(N1CCN3CCCCC3C1)c1ccccc1O2 (racemic) [8-chloro-11-[(R,S)-1,4-diazabicyclo[4.4.0]decan-4-yl]-dibenzo[b,f]-1,4-oxazepine]",–,–
